From patent publication US5854280A, “Antifungal sordaridin derivatives” (Glaxo Wellcome S.A., priority 1994, dated 1998)
Values after ≈ are worked out from the molar mass of the structure shown.

Legend:
C. albicans 4711E = experiment: protection of mice infected with C. albicans; format: in vivo, male mice infected with C. albicans 4711E; conditions: 50 mg/kg po
Excerpt: The in vivo evaluation of compounds of formula (I) can be carried out at a series of dose levels by administration (e.g. subcutaneously, orally, intraperitoneally or intravenously) to mice or rats inoculated with a strain of Candida albicans. Untreated animals die within 3 to 9 days and the dose level at which the test compound provides 50% protection against the lethal effect of the infection is noted.
(§1) The compounds of the invention are essentially non-toxic at therapeutically useful levels. […] The LD50 value for the compound of example 8, in male mice is >1000 mg/kg po.

[1] = acute oral toxicity (LD50); format: in vivo; conditions: male mice
Procedure: as §1

C. aibicans 2402E = experiment: in vitro antifungal MIC, two-fold serial dilution; format: cell-based, Candida albicans
Procedure: (§2) The in vitro evaluation of the anti-fungal activity of compounds of the invention was performed on liquid or solid medium by the anti-fungal two-fold serial dilution technique of determining the minimum inhibitory concentration (MIC) of anti-fungal agent that inhibited development of growth after 24 to 48 hours of incubation at 37° C. In practice, a series of agar plates or broth microdilution panels containing two-fold dilutions of anti-fungal agent tested were inoculated with a standard culture of a clinically relevant pathogen, for example, Candida albicans. The agar plates or broth microdulution panels were then examined for the presence or absence of growth of the fungus and the appropriate MIC values were noted.
(§3) Compounds of formula (I) have been tested for anti fungal activity in a standard in vitro screen and the minimum inhibiting concentration (MIC; μg/ml) determined for each compound against a variety of clinically relevant pathogens.

C. albicans 1208E = experiment: in vitro antifungal MIC, two-fold serial dilution; format: cell-based, Candida albicans
Procedure: as §2, §3

C. albicans 2005E = experiment: in vitro antifungal MIC, two-fold serial dilution; format: cell-based, Candida albicans
Procedure: as §2, §3

C. albicans 4711 = experiment: in vitro antifungal MIC, two-fold serial dilution; format: cell-based, Candida albicans
Procedure: as §2, §3

C. tropicalis 2808E = experiment: in vitro antifungal MIC, two-fold serial dilution; format: cell-based, Candida tropicalis
Procedure: as §2, §3

[2] = tested on: C. psuedotropicalis 2371E; experiment: in vitro antifungal MIC, two-fold serial dilution; format: cell-based, Candida pseudotropicalis
Procedure: as §2, §3

C. glabrata 2375E = experiment: in vitro antifungal MIC, two-fold serial dilution; format: cell-based, Candida glabrata
Procedure: as §2, §3

C. glabrata 2376E = experiment: in vitro antifungal MIC, two-fold serial dilution; format: cell-based, Candida glabrata
Procedure: as §2, §3

C. neoformans 2867E = experiment: in vitro antifungal MIC, two-fold serial dilution; format: cell-based, Cryptococcus neoformans
Procedure: as §2, §3

[3] = tested on: battery of fungal organisms; conditions: tested against a battery of fungal organisms; cited from earlier work
[4] = British Patent 1,162,027 / Japanese application J6 2040292A; cited from earlier work

SMILES	activity in protecting male mice infected with C. albicans 4711E (C. albicans 4711E)	LD50 [1] [mg/kg]	MIC (minimum inhibiting concentration) (C. aibicans 2402E) [µg/mL]	MIC (minimum inhibiting concentration) (C. albicans 1208E) [µg/mL]	MIC (minimum inhibiting concentration) (C. albicans 2005E) [µg/mL]	MIC (minimum inhibiting concentration) (C. albicans 4711) [µg/mL]	MIC (minimum inhibiting concentration) (C. tropicalis 2808E) [µg/mL]	MIC (minimum inhibiting concentration) [2] [µg/mL]	MIC (minimum inhibiting concentration) (C. glabrata 2375E) [µg/mL]	MIC (minimum inhibiting concentration) (C. glabrata 2376E) [µg/mL]	MIC (minimum inhibiting concentration) (C. neoformans 2867E) [µg/mL]	antifungal activity [3]	spectrum of action [3]	reported activity [4]
CC(C)C1=CC2CC3(C=O)C4CCC(C)C4CC2(COC2CC4OC(C)(C)OC4C(C)O2)C13C(=O)[O-].[Na+] [Example 8, [1R-(1α,3aβ,4β,4aβ,7β,7aα,8aβ)]8a-[(2,6-Dideoxy-3,4-O-isopropylidene-β-D-allopyranosyloxy)methyl]-4-formyl-4,4a,5,6,7,7a,8,8a-octahydro-7-methyl-3-(1-methylethyl)-1,4-methano-s-indacene-3a(1H)-carboxylic acid, sodium salt]	active in protecting male mice	> 1000	–	–	–	–	–	–	–	–	–	–	–	–
CC(C)C1=CC2CC3(C=O)C4CCC(C)C4CC2(COC2OC(C)C(OCc4ccccc4)C4OC24)C13C(=O)O [Example 54, [1R-(1α,3aβ,4β,4aβ,7β,7aα,8aβ)]8a-[(2,3-Anhydro-4-O-benzyl-6-deoxy-β-D-mannopyranosyloxy)methyl]-4-formyl-4,4a,5,6,7,7a,8,8a-octahydro-7-methyl-3-(1-methylethyl)-1,4-methano-s-indacene-3a(1H)-carboxylic acid]	–	–	≤ 0.001	≤ 0.001	≤ 0.001	≤ 0.001	≤ 0.001	0.01 (≈ 0.0182 µM)	8.00 (≈ 14.5 µM)	8.00 (≈ 14.5 µM)	2.00 (≈ 3.63 µM)	–	–	–
CC(C)C(=O)OC1C(C)OC(OCC23CC4C(C)CCC4C4(C=O)CC2C=C(C(C)C)C43C(=O)O)C2OC12 [Example 59, [1R-(1α,3aβ,4β,4aβ,7β,7aα,8aβ)]8a-[(2,3-Anhydro-6-deoxy-4-O-(1-methylethyl)carbonyl-β-D-mannopyranosyloxy)methyl]-4-formyl-4,4a,5,6,7,7a,8,8a-octahydro-7-methyl-3-(1-methylethyl)-1,4-methano-s-indacene-3a(1H)-carboxylic acid]	–	–	0.008 (≈ 0.0151 µM)	0.015 (≈ 0.0283 µM)	≤ 0.001	0.002 (≈ 0.00377 µM)	0.015 (≈ 0.0283 µM)	0.015 (≈ 0.0283 µM)	16.0 (≈ 30.2 µM)	16.0 (≈ 30.2 µM)	1.00 (≈ 1.88 µM)	–	–	–
C=CCOC1C(C)OC(OCC23CC4C(C)CCC4C4(C=O)CC2C=C(C(C)C)C43C(=O)O)C2OC12 [Example 68, [1R-(1α,3aβ,4β,4aβ,7β,7aβ,8aβ)]8a-[(4-O-Allyl,2,3-anhydro,6deoxy-β-D-mannopyranosyl)oxy-methyl]-4-formyl-4,4a5,6,7,7a8,8a-octahydro-7-methyl-3-(1-methylethyl)-1,4-methano-s-indacene-3a(1H)-carboxylic acid]	–	–	0.002 (≈ 0.00399 µM)	0.060 (≈ 0.12 µM)	0.060 (≈ 0.12 µM)	0.030 (≈ 0.0599 µM)	0.250 (≈ 0.499 µM)	0.015 (≈ 0.03 µM)	31.00 (≈ 61.9 µM)	31.00 (≈ 61.9 µM)	1.00 (≈ 2 µM)	–	–	–
CO[C@H]1[C@@H](O)[C@H](O)[C@H](OC[C@@]23C[C@@H]4[C@H](C)CC[C@H]4[C@@]4(C=O)CC2C=C(C(C)C)[C@@]34C(=O)O)O[C@@H]1C [sordarin]	–	–	–	–	–	–	–	–	–	–	–	only moderately active	limited spectra of action	fungistatic activity
C/C=C/C=C\C(=O)O[C@H]1[C@H](O)[C@H](OCC23C[C@@H]4[C@H](C)CC[C@H]4C4(C=O)CC2C=C(C(C)C)C34C(=O)O)O[C@H](C)[C@H]1OC (some centres unmarked) [zofimarin]	–	–	–	–	–	–	–	–	–	–	–	only moderately active	limited spectra of action	antifungal activity
